According to US20180311505A1, “METHODS FOR TREATING CANCER BY ENHANCING INTRATUMORAL IMMUNE RESPONSE” (THE GENERAL HOSPITAL CORPORATION, priority 2015, published 2018):

System: parental melanoma
Assay: Immune infiltrates (immunofluorescence, flow cytometry) in parental melanomas and draining lymph nodes
Type: in vivo, mouse
Method: Immunohistochemical analyses. Mouse tumors were collected 5 days after treatment initiation and formalin-fixed paraffin-embedded (FFPE). Slides were baked for 60 minutes in a 60° C. oven and loaded into the Bond III™ staining platform. Slides were antigen retrieved in Bond™ Epitope Retrieval 1 for 30 minutes at 100° C. then incubated with CD3 (Abcam™, ab16669) at 1:150 diluted in Bond™ Primary Antibody diluent for 30 minutes at room temperature. Primary antibody was detected using Bond™ Polymer Refine Detection kit, slides were developed in DAB, then dehydrated and coverslipped. For each of 3 samples per group, 3 random 20× magnification fields were chosen at the tumor center for quantification. The open-source CellProfiler™ cell image analysis software3 was used to quantify positively stained cells in each image. The analysis pipeline utilized the UnmixColors module to separate each image into one of the Hematoxylin stain and one of the DAB stain. The EnhanceOrSuppressFeatures module was applied to the DAB image to enhance cellular features. Finally, the IdentifyPrimaryObjects module was used to count the number of cells present in the enhanced image.
Immunofluorescence analyses. […]
Flow cytometry. […] Flow cytometry data were acquired on the BD™ LSRII flow cytometer and analyzed using FlowJo™ software (Tree Star™).

## CC(C)Cn1cnc2c(N)nc3ccccc3c21 [imiquimod]
Draining lymph nodes, parental melanoma-bearing mice
  PD-L2 expression on CD11c+ dendritic cells: reduced
Parental melanomas, imiquimod alone or with anti-PD-1 or aFP
  granzyme B+ fraction of CD8+ TILs: expanded
